Data as given in patent US12077503B2, “Substituted cyclic amides and their use as herbicides” (FMC CORPORATION, priority 2015, dated 2024).

Key:
Type in all cases: in vivo
[1] = test system: ragweed (common ragweed, Ambrosia elatior); assay: Test A preemergence; settings: Ambrosia artemisiifolia, pre-emergence, 240 h; for pest or weed control at 125 g/ha: 125 g ai/ha, preemergence, 0 to 100 scale where 0 is no effect and 100 is complete control, read-out: Ragweed plant response rating; for pest or weed control at 500 g/ha: 500 g ai/ha, Preemergence, visual injury vs untreated controls after approximately 10 d, read-out: Ragweed plant response rating (0 to 100 scale where 0 is no effect and 100 is complete control)
In short: (§1)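 In a loam soil and sand blend, planted seeds got a preemergence directed soil spray, and young plants at the one- to two-leaf stage, 2–10 cm high, got a postemergence application; ~10 d greenhouse hold; injury rated visually, 0 = none, 100 = complete control.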

[2] = test system: ryegrass, Italian (Italian ryegrass, Lolium multiflorum); assay: Test A preemergence; settings: Lolium multiflorum, pre-emergence, 240 h; for pest or weed control at 125 g/ha: 125 g ai/ha, preemergence, 0 to 100 scale where 0 is no effect and 100 is complete control, read-out: Ryegrass, Italian plant response rating; for pest or weed control at 500 g/ha: 500 g ai/ha, Preemergence, visual injury vs untreated controls after approximately 10 d, read-out: Ryegrass, Italian plant response rating (0 to 100 scale where 0 is no effect and 100 is complete control)
In short: as §1

[3] = test system: Kochia (Kochia scoparia); assay: Test A preemergence; settings: Bassia scoparia, pre-emergence, 240 h; for pest or weed control at 125 g/ha: 125 g ai/ha, preemergence, 0 to 100 scale where 0 is no effect and 100 is complete control, read-out: Kochia plant response rating; for pest or weed control at 500 g/ha: 500 g ai/ha, Preemergence, visual injury vs untreated controls after approximately 10 d, read-out: Kochia plant response rating (0 to 100 scale where 0 is no effect and 100 is complete control)
In short: as §1

[4] = test system: giant foxtail (Setaria faberii); assay: Test A preemergence; settings: Setaria faberi, pre-emergence, 240 h; for pest or weed control at 125 g/ha: 125 g ai/ha, preemergence, 0 to 100 scale where 0 is no effect and 100 is complete control, read-out: Foxtail, Giant plant response rating; for pest or weed control at 500 g/ha: 500 g ai/ha, Preemergence, visual injury vs untreated controls after approximately 10 d, read-out: Foxtail, Giant plant response rating (0 to 100 scale where 0 is no effect and 100 is complete control)
In short: as §1

[5] = test system: barnyardgrass (Echinochloa crus-galli); assay: Test A preemergence; settings: Echinochloa crus-galli, pre-emergence, 240 h; for pest or weed control at 125 g/ha: 125 g ai/ha, preemergence, 0 to 100 scale where 0 is no effect and 100 is complete control, read-out: Barnyardgrass plant response rating; for pest or weed control at 500 g/ha: 500 g ai/ha, Preemergence, visual injury vs untreated controls after approximately 10 d, read-out: Barnyardgrass plant response rating (0 to 100 scale where 0 is no effect and 100 is complete control)
In short: as §1

[6] = test system: pigweed (Amaranthus retroflexus); assay: Test A preemergence; settings: Amaranthus retroflexus, pre-emergence, 240 h; for pest or weed control at 125 g/ha: 125 g ai/ha, preemergence, 0 to 100 scale where 0 is no effect and 100 is complete control, read-out: Pigweed plant response rating; for pest or weed control at 500 g/ha: 500 g ai/ha, Preemergence, visual injury vs untreated controls after approximately 10 d, read-out: Pigweed plant response rating (0 to 100 scale where 0 is no effect and 100 is complete control)
[7] = test system: rice (Oryra sativa); assay: Test B flooded paddy test; settings: Oryza sativa, Flood, 250 g ai/ha; scale of 0 to 100 where 0 is no effect and 100 is complete control; read-out: Rice plant response rating
In short: (§2)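 Flooding to 3 cm over soil accompanied treatment, which consisted of adding compound to the standing water around 2-leaf plants; depth was then maintained. Visual assessment versus controls followed at 13 to 15 d (scale 0–100, 0 meaning no effect).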

[8] = test system: sedge, umbrella (small-flower umbrella sedge, Cyperus difformis); assay: Test B flooded paddy test; settings: Cyperus difformis, Flood, 250 g ai/ha; scale of 0 to 100 where 0 is no effect and 100 is complete control; read-out: Sedge, Umbrella plant response rating
In short: as §2

[9] = test system: barnyardgrass (Echinochloa crus-galli); assay: Test B flooded paddy test; settings: Echinochloa crus-galli, Flood, 250 g ai/ha; scale of 0 to 100 where 0 is no effect and 100 is complete control; read-out: Barnyardgrass plant response rating
In short: as §2

[10] = test system: ducksalad (Heteranthera limosa); assay: Test B flooded paddy test; settings: Heteranthera limosa, Flood, 250 g ai/ha; scale of 0 to 100 where 0 is no effect and 100 is complete control; read-out: Ducksalad plant response rating
In short: as §2

[11] = test system: ragweed (common ragweed, Ambrosia elatior); assay: Test A postemergence; settings: Ambrosia artemisiifolia, post-emergence, 240 h, 125 g ai/ha, postemergence, visual injury rating after approximately 10 d; read-out: Ragweed plant response rating (0 to 100 scale, 0 no effect, 100 complete control)
In short: as §1

[12] = test system: Kochia (Kochia scoparia); assay: Test A postemergence; settings: Bassia scoparia, post-emergence, 240 h, 125 g ai/ha, postemergence, visual injury rating after approximately 10 d; read-out: Kochia plant response rating (0 to 100 scale, 0 no effect, 100 complete control)
In short: as §1

[13] = test system: giant foxtail (Setaria faberii); assay: Test A postemergence; settings: Setaria faberi, post-emergence, 240 h, 125 g ai/ha, postemergence, visual injury rating after approximately 10 d; read-out: Foxtail, Giant plant response rating (0 to 100 scale, 0 no effect, 100 complete control)
In short: as §1

[14] = test system: barnyardgrass (Echinochloa crus-galli); assay: Test A postemergence; settings: Echinochloa crus-galli, post-emergence, 240 h, 125 g ai/ha, postemergence, visual injury rating after approximately 10 d; read-out: Barnyardgrass plant response rating (0 to 100 scale, 0 no effect, 100 complete control)
In short: as §1

Row | Compound | pest or weed control at 125 g/ha [1] | pest or weed control at 500 g/ha [1] | pest or weed control at 125 g/ha [2] | pest or weed control at 500 g/ha [2] | pest or weed control at 125 g/ha [3] | pest or weed control at 500 g/ha [3] | pest or weed control at 125 g/ha [4] | pest or weed control at 500 g/ha [4] | pest or weed control at 125 g/ha [5] | pest or weed control at 500 g/ha [5] | pest or weed control at 125 g/ha [6] | pest or weed control at 500 g/ha [6] | pest or weed control at 250 g/ha [7] | pest or weed control at 250 g/ha [8] | pest or weed control at 250 g/ha [9] | pest or weed control at 250 g/ha [10] | pest or weed control at 125 g/ha [11] | pest or weed control at 125 g/ha [12] | pest or weed control at 125 g/ha [13] | pest or weed control at 125 g/ha [14]
1 | CN1C[C@H](c2cccc(COC(F)F)c2)[C@@H](C(=O)Nc2cccc(F)c2F)C1=O [Compound 873] | 40% | 90% | 50% | 80% | 80% | 90% | 90% | 100% | 90% | 90% | 40% | 50% | 0% | 50% | 85% | 100% | 30% | 60% | 90% | 90%
2 | CN1C[C@H](c2cc(F)c(F)c(F)c2)[C@@H](C(=O)Nc2cccc(F)c2F)C1=O [Compound 879] | 50% | 90% | 60% | 90% | 80% | 90% | 100% | 100% | 100% | 100% | 70% | 80% | 0% | 50% | 90% | 100% | 20% | 60% | 80% | 100%
3 | CN1C[C@H](c2cc(F)c(F)c(F)c2)[C@@H](C(=O)Nc2ccccc2S(C)(=O)=O)C1=O [Compound 880] | 50% | 80% | 20% | 70% | 70% | 90% | 100% | 100% | 90% | 100% | 70% | 90% | 0% | 0% | 60% | 100% | 40% | 20% | 80% | 90%
4 | COc1c(F)ccc([C@H]2CNC(=O)[C@@H]2C(=O)Nc2ccc(F)cc2F)c1Cl [Compound 883] | 0% | 0% | 0% | 20% | 30% | 60% | 60% | 90% | 90% | 90% | 0% | 0% | 20% | 0% | 0% | 80% | 0% | 30% | 70% | 90%
5 | COc1cccc(C2CN(C)C(=O)C2C(=O)Nc2cccc(F)c2F)c1 (centres unmarked) [Compound 886] | 0% | 50% | 0% | 60% | 80% | 90% | 90% | 100% | 90% | 90% | 0% | 0% | 0% | 0% | 75% | 50% | 0% | 0% | 90% | 90%
6 | Cc1cc(C)cc([C@H]2CNC(=O)[C@@H]2C(=O)Nc2ccccc2F)c1 [Compound 888] | 0% | 0% | 0% | 60% | 60% | 80% | 80% | 90% | 90% | 90% | 0% | 0% | 0% | 0% | 70% | 75% | 0% | 0% | 30% | 90%
7 | COc1c(F)ccc([C@H]2CN(C)C(=O)[C@@H]2C(=O)Nc2ccccc2F)c1Cl [Compound 892] | 20% | 50% | 30% | 90% | 70% | 90% | 100% | 100% | 100% | 100% | 0% | 40% | 0% | 0% | 65% | 80% | 0% | 40% | 90% | 90%
